Test results reported in article PMC9352670 (2022).

Legend:
Assay in all cases: microscale thermophoresis
[1] = test system: Dm-HS-10 (DNA, aptamer, HFNAP: side-chain on 5' nucleobase of each coding trinucleotide, positions 19,22,25,...,61 (codon key Figure 1B)) GAAAGCAGGACTGGAGATCCTTCGCATCGGCTTTCTCCCTGTCACCCCTGTTCCCCTTGACCGCAGACCGAACTAGAGCTT; settings: 5 mM KCl, 1 mM MgCl2, 1 mM CaCl2 added; HBS-P+ buffer, 25 °C
[2] = test system: Dm-CCS-3 (DNA, aptamer, HFNAP: side-chain on 5' nucleobase of each coding trinucleotide, positions 19,22,25,...,61 (codon key Figure 1B)) GAAAGCAGGACTGGAGATTTACATCCCCTCCAGTCGTGCCCCCTACCTTGCTGCTCGTCATGGCAGACCGAACTAGAGCTT; settings: 5 mM KCl, 1 mM MgCl2, 1 mM CaCl2 added; HBS-P+ buffer, 25 °C
[3] = test system: Dm-reference-based-random-after-selection-3 (DNA, other, HFNAP: side-chain on 5' nucleobase of each coding trinucleotide, positions 19,22,25,...,61 (codon key Figure 1B)) GAAAGCAGGACTGGAGATTGCTCTTGCCCGCCCTGTTGCTATCATCCCCCACCTTAGTACCCCCAGACCGAACTAGAGCTT; settings: 5 mM KCl, 1 mM MgCl2, 1 mM CaCl2 added; HBS-P+ buffer, 25 °C
[4] = test system: Dm-HS-5 ∆ s.c. (DNA, aptamer, none (no side-chains)) GAAAGCAGGACTGGAGATCGATTCTGGTGCTGTTGATCTCCGCCATTGTGCTCCTGCCCTTCACAGACCGAACTAGAGCTT; settings: 5 mM KCl, 1 mM MgCl2, 1 mM CaCl2 added; HBS-P+ buffer, 25 °C
[5] = test system: Dm-HS-1 TGG ∆ s.c. (DNA, aptamer, no side-chain at 25 (codon 3 TGG); others as HFNAP: fluorophenyl at 19; allylamine at 22, 37; alcohol at 28, 34, 49; phenol at 31, 46; cyclopentyl at 40; cyclopropyl at 43, 58; imidazole at 52, 55, 61) GAAAGCAGGACTGGAGATCGATTCTGGTGCTGTTGATCTCCGCCATTGTGCTCCTACCCTTCACAGACCGAACTAGAGCTT; settings: 5 mM KCl, 1 mM MgCl2, 1 mM CaCl2 added to HBS-P+; HBS-P+ buffer, 25 °C
[6] = test system: Dm-HS-1 TCC ∆ s.c. (DNA, aptamer, no side-chain at 52 (codon 12 TCC); others as HFNAP: fluorophenyl at 19; allylamine at 22, 25, 37; alcohol at 28, 34, 49; phenol at 31, 46; cyclopentyl at 40; cyclopropyl at 43, 58; imidazole at 55, 61) GAAAGCAGGACTGGAGATCGATTCTGGTGCTGTTGATCTCCGCCATTGTGCTCCTACCCTTCACAGACCGAACTAGAGCTT; settings: 5 mM KCl, 1 mM MgCl2, 1 mM CaCl2 added to HBS-P+; HBS-P+ buffer, 25 °C

COc1cccc2c1C(=O)c1c(O)c3c(c(O)c1C2=O)C[C@@](O)(C(C)=O)C[C@@H]3O[C@H]1C[C@H](N)[C@H](O)[C@H](C)O1
Kd [1]: 64.68 ± 3.9 nM
Kd [2]: 26.4 ± 6.9 nM
Kd [3]: 176.5 ± 8.0 µM
Kd ∆ side-chains [4]: 4.50 ± 0.21 µM
Kd [5]: 16.0 ± 2.2 nM
Kd [6]: 29.9 ± 10.2 nM
